Results taken from the supplement of paper PMC10307832.

How the values were obtained:
Assay in all cases: relative viability (nuclei count vs DMSO), 5 days (fraction); higher = more cells survive
NCI-H650 = test system: NCI-H650
How it was run: (§1)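 The day after seeding in 1536-well plates, lung cancer cell lines were treated by pin tool with a single drug, or with a fixed anchor-drug dose together with five library-drug doses (not always all listed) in √10 steps. After 5 days, a combined fix-and-stain solution (final 0.05% Triton X-100, 1% formaldehyde, 1 ug/ml Hoechst) was added. Nuclei counted on 4× images gave relative viability as treated counts over vehicle counts, reported as the median of duplicate plates.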

NCI-H520 = test system: NCI-H520
How it was run: as §1

NCI-H1651 = test system: NCI-H1651
How it was run: as §1

NCI-H838 = test system: NCI-H838
How it was run: as §1

NCI-H1944 = test system: NCI-H1944
How it was run: as §1

RERF-LC-KJ = test system: RERF-LC-KJ
How it was run: as §1

NCI-H1623 = test system: NCI-H1623
How it was run: as §1

With O=c1cc(N2CCOCC2)oc2c(-c3cccc4c3sc3ccccc34)cccc12 + CCNC(=O)c1noc(-c2cc(C(C)C)c(O)cc2O)c1-c1ccc(CN2CCOCC2)cc1 [Luminespib] (partner 0.01 µM) the relative viability (NCI-H650; first compound 0.03162 µM) was 0.846, the relative viability (NCI-H650; first compound 0.1 µM) was 0.638 and the relative viability (NCI-H650; first compound 0.3162 µM) was 0.917. For the same compound, the relative viability (NCI-H650; first compound 1 µM) was 0.813, the relative viability (NCI-H520; first compound 0.01 µM) was 0.213 and the relative viability (NCI-H520; first compound 0.03162 µM) was 0.285. It also gave a relative viability (NCI-H520; first compound 0.1 µM) of 0.24, a relative viability (NCI-H520; first compound 0.3162 µM) of 0.209 and a relative viability (NCI-H520; first compound 1 µM) of 0.249. It also gave a relative viability (NCI-H1651; first compound 0.01 µM) of 0.777, a relative viability (NCI-H1651; first compound 0.03162 µM) of 0.736 and a relative viability (NCI-H1651; first compound 0.1 µM) of 0.824. The relative viability (NCI-H1651; first compound 0.3162 µM) was 0.712, the relative viability (NCI-H1651; first compound 1 µM) was 0.807 and the relative viability (NCI-H838; first compound 0.01 µM) was 0.347. It also gave a relative viability (NCI-H838; first compound 0.03162 µM) of 0.362, a relative viability (NCI-H838; first compound 0.1 µM) of 0.406 and a relative viability (NCI-H838; first compound 0.3162 µM) of 0.294. For the same compound, the relative viability (NCI-H838; first compound 1 µM) was 0.287, the relative viability (NCI-H1944; first compound 0.01 µM) was 0.785 and the relative viability (NCI-H1944; first compound 0.03162 µM) was 0.758. The relative viability (NCI-H1944; first compound 0.1 µM) was 0.687, the relative viability (NCI-H1944; first compound 0.3162 µM) was 0.728 and the relative viability (NCI-H1944; first compound 1 µM) was 0.749. It also gave a relative viability (RERF-LC-KJ; first compound 0.01 µM) of 1.31, a relative viability (RERF-LC-KJ; first compound 0.03162 µM) of 1.22 and a relative viability (RERF-LC-KJ; first compound 0.1 µM) of 1.48. It also gave a relative viability (RERF-LC-KJ; first compound 0.3162 µM) of 1.07, a relative viability (RERF-LC-KJ; first compound 1 µM) of 1.21 and a relative viability (NCI-H1623; first compound 0.01 µM) of 0.383. It also gave a relative viability (NCI-H1623; first compound 0.03162 µM) of 0.521, a relative viability (NCI-H1623; first compound 0.1 µM) of 0.495 and a relative viability (NCI-H1623; first compound 0.3162 µM) of 0.475. For the same compound, the relative viability (NCI-H1623; first compound 1 µM) was 0.409.
Compound CCN(CC)CCCCNc1ncc2cc(-c3cc(OC)cc(OC)c3)c(NC(=O)NC(C)(C)C)nc2n1 + CCNC(=O)c1noc(-c2cc(C(C)C)c(O)cc2O)c1-c1ccc(CN2CCOCC2)cc1 [Luminespib] (partner 0.01 µM) has a relative viability (NCI-H650; first compound 0.01 µM) of 0.74, a relative viability (NCI-H650; first compound 0.03162 µM) of 0.729 and a relative viability (NCI-H650; first compound 0.1 µM) of 0.736. It also gave a relative viability (NCI-H650; first compound 0.3162 µM) of 0.864, a relative viability (NCI-H650; first compound 1 µM) of 0.848 and a relative viability (NCI-H520; first compound 0.01 µM) of 0.203. It also gave a relative viability (NCI-H520; first compound 0.03162 µM) of 0.228, a relative viability (NCI-H520; first compound 0.1 µM) of 0.229 and a relative viability (NCI-H520; first compound 0.3162 µM) of 0.289. The relative viability (NCI-H520; first compound 1 µM) was 0.207, the relative viability (NCI-H1651; first compound 0.01 µM) was 0.886 and the relative viability (NCI-H1651; first compound 0.03162 µM) was 0.875. The relative viability (NCI-H1651; first compound 0.1 µM) was 0.779, the relative viability (NCI-H1651; first compound 0.3162 µM) was 1.33 and the relative viability (NCI-H1651; first compound 1 µM) was 0.781. The relative viability (NCI-H838; first compound 0.01 µM) was 0.344, the relative viability (NCI-H838; first compound 0.03162 µM) was 0.244 and the relative viability (NCI-H838; first compound 0.1 µM) was 0.304. The relative viability (NCI-H838; first compound 0.3162 µM) was 0.304, the relative viability (NCI-H838; first compound 1 µM) was 0.3 and the relative viability (NCI-H1944; first compound 0.01 µM) was 0.705. It also gave a relative viability (NCI-H1944; first compound 0.03162 µM) of 0.747, a relative viability (NCI-H1944; first compound 0.1 µM) of 0.762 and a relative viability (NCI-H1944; first compound 0.3162 µM) of 0.822. It also gave a relative viability (NCI-H1944; first compound 1 µM) of 0.603, a relative viability (RERF-LC-KJ; first compound 0.01 µM) of 1.24 and a relative viability (RERF-LC-KJ; first compound 0.03162 µM) of 1.21. For the same compound, the relative viability (RERF-LC-KJ; first compound 0.1 µM) was 1.84, the relative viability (RERF-LC-KJ; first compound 0.3162 µM) was 1.35 and the relative viability (RERF-LC-KJ; first compound 1 µM) was 1.27. For the same compound, the relative viability (NCI-H1623; first compound 0.01 µM) was 0.605, the relative viability (NCI-H1623; first compound 0.03162 µM) was 0.54 and the relative viability (NCI-H1623; first compound 0.1 µM) was 0.443. For the same compound, the relative viability (NCI-H1623; first compound 0.3162 µM) was 0.607 and the relative viability (NCI-H1623; first compound 1 µM) was 0.722.
Compound O=c1cc(-c2cccc3c2Sc2ccccc2S3)oc(N2CCOCC2)c1 + CCNC(=O)c1noc(-c2cc(C(C)C)c(O)cc2O)c1-c1ccc(CN2CCOCC2)cc1 [Luminespib] (partner 0.01 µM) has a relative viability (NCI-H650; first compound 0.08 µM) of 0.711, a relative viability (NCI-H650; first compound 0.253 µM) of 0.756 and a relative viability (NCI-H650; first compound 0.8 µM) of 0.873. The relative viability (NCI-H650; first compound 8 µM) was 0.813, the relative viability (NCI-H520; first compound 0.08 µM) was 0.223 and the relative viability (NCI-H520; first compound 0.253 µM) was 0.231. The relative viability (NCI-H520; first compound 0.8 µM) was 0.215, the relative viability (NCI-H520; first compound 2.53 µM) was 0.205 and the relative viability (NCI-H520; first compound 8 µM) was 0.231. For the same compound, the relative viability (NCI-H1651; first compound 0.08 µM) was 0.81, the relative viability (NCI-H1651; first compound 0.253 µM) was 0.93 and the relative viability (NCI-H1651; first compound 0.8 µM) was 0.889. For the same compound, the relative viability (NCI-H1651; first compound 2.53 µM) was 0.807, the relative viability (NCI-H1651; first compound 8 µM) was 0.791 and the relative viability (NCI-H838; first compound 0.08 µM) was 0.277. It also gave a relative viability (NCI-H838; first compound 0.253 µM) of 0.264, a relative viability (NCI-H838; first compound 0.8 µM) of 0.371 and a relative viability (NCI-H838; first compound 2.53 µM) of 0.313. It also gave a relative viability (NCI-H838; first compound 8 µM) of 0.23, a relative viability (NCI-H1944; first compound 0.08 µM) of 0.678 and a relative viability (NCI-H1944; first compound 0.253 µM) of 0.746. It also gave a relative viability (NCI-H1944; first compound 0.8 µM) of 0.72, a relative viability (NCI-H1944; first compound 2.53 µM) of 0.684 and a relative viability (NCI-H1944; first compound 8 µM) of 0.758. For the same compound, the relative viability (RERF-LC-KJ; first compound 0.08 µM) was 1.06, the relative viability (RERF-LC-KJ; first compound 0.253 µM) was 1.56 and the relative viability (RERF-LC-KJ; first compound 0.8 µM) was 1.24. The relative viability (RERF-LC-KJ; first compound 2.53 µM) was 1.35, the relative viability (RERF-LC-KJ; first compound 8 µM) was 1.42 and the relative viability (NCI-H1623; first compound 0.08 µM) was 0.615. It also gave a relative viability (NCI-H1623; first compound 0.253 µM) of 0.589, a relative viability (NCI-H1623; first compound 0.8 µM) of 0.472 and a relative viability (NCI-H1623; first compound 2.53 µM) of 0.411. For the same compound, the relative viability (NCI-H1623; first compound 8 µM) was 0.495.
